Experimental data taken from patent US20210113441A1, “BIOSOLVENT MIXTURE REMOVAL OF INFECTION-CAUSED NAIL DISCOLORATION” (Vertec BioSolvents, Inc., priority 2019, published 2021).

Experiment: Solubility studies in 50/50 alcohol/ethyl lactate blends
Conditions: for Final concentration dissolved (clear, free of particulates): ambient temperature about 20-25 C

Solubility (ethanol/ethyl lactate 50/50 blend (conclusion)): greater than 10 % w/w | Final concentration dissolved (clear, free of particulates) (ethyl alcohol/ethyl lactate blend 50/50 w/w): 10.31% | Solubility (isopropanol/ethyl lactate 50/50 blend (conclusion)): greater than 10 % w/w | Final concentration dissolved (clear, free of particulates) (isopropyl alcohol/ethyl lactate blend 50/50 w/w): 10.07%
Structure (SMILES): Clc1ccccc1C(c1ccccc1)(c1ccccc1)n1ccnc1 [clotrimazole, Clotrimazole]
